Assays:
[1] = Clinical trial study of tablets containing compound 11A: fasting blood glucose and safety; format: in vivo, human
Protocol: The embodiments were all derived from a clinical trial study. The subjects were screened and eligible to enter groups according to the entry criteria specified in the clinical protocol. The test drug was administered orally on day 1, and adverse events and combined administration were observed and recorded after administration. After safety evaluation was conducted on day 7 of the single administration period, the subjects received continuous administration of the test drug until the subjects withdrew from the clinical trial. Safety assessments were conducted during the clinical trial according to the time specified in the clinical protocol.
Embodiments 2 to 9 were derived from an ongoing clinical trial study with dose groups of 0.1 mg, 0.2 mg, 0.4 mg, 0.5 mg, 0.7 mg, 0.9 mg, 1.1 mg, and 1.4 mg.

[2] = Bioavailability experiments (pharmacokinetics) in beagle dogs; format: in vivo; settings: male and female beagle dogs
Protocol: Bioavailability Experiments
During the experimental period, animals were housed in single cages with animal identification codes marked on the cage tags. The 12 non-naïve beagle dogs (6/sex) were randomly divided into 2 groups (3/sex/group).
(§1) (1) Non-naïve beagle dogs were administered intravenously (solvent 50% PEG400+50% PBS) at a dose volume of 2 mL/kg per dog (dose of 0.1 mg/kg per dog), and then blood was collected to measure the plasma drug concentration of non-naïve beagle dogs at different time points of 15 minutes, 30 minutes, 1 hour, 2 hours, 4 hours, 6 hours, 8 hours, and 24 hours.
as §1, with “(2)” for “(1)”, “orally” for “intravenously (solvent 50% PEG400+50% PBS)”, “1 tablet” for “2 mL/kg”, “0.5 mg” for “0.1 mg/kg”, “hours; the oral bioavailability of tablets was calculated.” for “hours.”
Plasma drug concentration data was processed in a non-compartment model using WinNonlin™ Version 6.2.1 (Pharsight, Mountain View, Calif.) pharmacokinetic software. The peak concentration (Cmax), peak time (Tmax) and quantifiable time were directly read out from the plasma drug concentration-time diagram.
The following pharmacokinetic parameters were calculated using the log-linear trapezoidal method: elimination phase half-life (T1/2), apparent volume of distribution (Vdss) and clearance rate (CL), mean residence time of the drug from 0 to the end time point in vivo (MRT0-last), mean residence time of the drug from 0 to infinite time in vivo (MRT0-inf), the area under the time-plasma concentration curve from 0 to the end time point (AUC0-last), the area under the time-plasma concentration curve from 0 to infinite time (AUC0-inf), initial concentration (C0).

[3] = Phase III clinical trial (N=287); cited from earlier work

SMILES: COCCOc1cnc2ccc(-c3cnc(OC)c(NS(=O)(=O)c4sc(C)nc4C)c3)cn2c1=O [Compound 11A]
- fasting blood glucose ([1]; Subject 1, tablet 0.1 mg once a day oral from Nov. 9, 2018, follow-up Mar. 14, 2019, baseline 5.64 mmol/L): 6.19 mmol/L
- fasting blood glucose ([1]; Subject 2, tablet 0.2 mg once a day oral from Jan. 16, 2019, follow-up Jan. 23, 2019, baseline 5.81 mmol/L): 6.45 mmol/L
- fasting blood glucose ([1]; Subject 3, tablet 0.4 mg once a day oral from May 30, 2019, follow-up Jun. 5, 2019, baseline 5.63 mmol/L): 6.99 mmol/L
- fasting blood glucose ([1]; Subject 5, tablet 0.7 mg once a day oral from Nov. 7, 2019, follow-up Nov. 13, 2019, baseline 6.06 mmol/L): 8.37 mmol/L
- fasting blood glucose ([1]; Subject 5, tablet 0.7 mg once a day oral from Nov. 7, 2019, follow-up Nov. 20, 2019, baseline 6.06 mmol/L): 9.44 mmol/L
- fasting blood glucose ([1]; Subject 6, 0.7 mg tablet administered continuously again from Nov. 30, 2019, follow-up Dec. 4, 2019): 11.44 mmol/L
- fasting blood glucose after stopping administration ([1]; Subject 6, 0.7 mg tablets stopped Nov. 27, 2019, measured Nov. 29, 2019): returned to normal
- fasting blood glucose ([1]; Subject 6, tablet 0.7 mg once a day oral from Nov. 21, 2019, follow-up Nov. 27, 2019, baseline 5.87 mmol/L): 11.4 mmol/L
- fasting blood glucose ([1]; Subject 7, tablet 0.7 mg once a day oral from Dec. 10, 2019, follow-up Jan. 20, 2020, baseline 5.92 mmol/L): 9.13 mmol/L
- fasting blood glucose ([1]; Subject 8, tablet 1.1 mg once a day oral from Dec. 17, 2019 (so in the source), measured Dec. 23, 2020, baseline 6.87 mmol/L): 12.66 mmol/L
- fasting blood glucose ([1]; Subject 9, tablet 1.4 mg once a day oral from Aug. 27, 2020, measured Sep. 2, 2020, baseline 5.94 mmol/L): 10.77 mmol/L
- incidence of hyperglycemia ([1]; subjects of dose groups 0.1-1.4 mg, during the administering period): 80%
- gastrointestinal side effects such as nausea, vomiting and diarrhea ([1]; the 8 subjects of embodiments 2 to 9): no significant gastrointestinal side effects
- Vd ([2]; both sexes, dog, plasma, single intravenous injection 0.1 mg/kg, read-out: apparent volume of distribution (Vdss)): 6.16 ± 1.91 L/kg
- AUC(0-t) ([2]; both sexes, dog, plasma, single intravenous injection 0.1 mg/kg, read-out: area under the curve AUC0-last): 0.114 ± 0.0276 µM·h
- half-life ([2]; both sexes, dog, plasma, single intravenous injection 0.1 mg/kg, read-out: mean plasma elimination phase half-life Tin (converted)): 3.21 ± 1.81 h
- clearance ([2]; both sexes, dog, plasma, single intravenous injection 0.1 mg/kg, read-out: plasma clearance rate (CL)): 24.6 ± 6.66 mL/min/kg
- bioavailability ([2]; both sexes, dog, plasma, single oral administration of tablet containing 0.5 mg of 11A (prescription of embodiment 1)): 80.9%
- Cmax ([2]; both sexes, dog, plasma, single oral administration of tablet containing 0.5 mg of 11A (prescription of embodiment 1), read-out: peak concentration (Cmax)): 11.1 ± 2.08 nM
- peak times ([2]; single oral administration of tablet containing 0.5 mg of 11A (prescription of embodiment 1)): 1.00 ± 0.00 h

SMILES: Cc1nc(NC(=O)N2CCC[C@H]2C(N)=O)sc1-c1ccnc(C(C)(C)C(F)(F)F)c1 [Alpelisib]
- diarrhea incidence [3]: 57.7%
- diarrhea incidence above grade 3 [3]: 6.7%
- nausea incidence [3]: 44.7%
- nausea incidence above grade 3 [3]: 2.5%
- vomiting incidence [3]: 27.1%
- vomiting incidence above grade 3 [3]: 0.7%

— patent publication US20230165864A1, “APPLICATION OF HETEROCYCLIC COMPOUND” (GUANGZHOU JOYO PHARMATECH CO., LTD, priority 2020, published 2023)
